Measurements as given in patent US6566378B1, “Pesticidal compositions and pesticidal methods” (Sumitomo Chemical Company, Limited, priority 1999, dated 2003).

Columns and labels:
Type in all cases: in vivo
[1] = test system: Helicoverpa armigera (cotton bollworm); test: Test Example 2: test for controlling damage by Helicoverpa armigera on potted cabbage; settings: spray on potted cabbage, five fourth-instar larvae, damage after 7 days
Protocol: (§1) An aqueous dilution of the emulsifiable concentrate and an aqueous dilution of an emulsifiable concentrate, obtained by mixing 10 parts of Compound B or Compound C, 40 parts of xylene, 40 parts of dimethylformamide and 10 parts of Solpol 3005X, were mixed together to make a designated concentration, to which a spreading agent (New Rinou manufactured by Nihon Nohyaku) was added to make a volume of the spreading agent 1/3000. The prepared application solution was sprayed over potted cabbage (at the fourth to fifth leaf stage) at a volume of 40ml per pot. The treated plants were air dried, and then five fourth-instar larvae of Helicoverpa armigera (cotton bollworm) were set free. After 7 days, the damage (%) of the plant was observed. Each controlling ratio (%) was calculated by the following equation based on the damage (%) of non-treated plant.
(§2) Controlling ratio (%)=100×(Damage of non-treated plant−Damage of treated plant)/ Damage of non-treated plant

[2] = test system: Aphis gossypii (cotton aphid); test: Test Example 4: test for controlling damage by Aphis gossypii on potted cucumber; settings: spray on potted cucumber, two days after treatment
Protocol: (§3) Twenty parts of Compound (I) were dissolved in 70 parts of Solvesso 150 (mentioned above), and 6 parts of Toximul 3454F (mentioned above) and 4 parts of Toximul 3455F (mentioned above) were added thereto and mixed well to give an emulsifiable concentrate. An aqueous dilution of the emulsifiable concentrate and an aqueous dilution of an emulsifiable concentrate, obtained by mixing 10 parts of Compound C, 40 parts of xylene, 40 parts of dimethylformamide and 10 parts of Solpol 3005X, were mixed together to make a designated concentration, to which a spreading agent (New Rinou manufactured by Nihon Nohyaku) was added to make a volume of the spreading agent 1/5000.
(§4) About thirty Aphis gossypii (cotton aphid) in various growth stages were set free on potted cucumber (at the first leaf stage), and then the prepared application solution was sprayed over at a volume of 40ml per pot. The treated plants were air dried, covered for preventing escape of the tested aphids and invasion from the outside and set in a greenhouse (25° C.).
(§5) Corrected indices were calculated by the following equation based on prerecorded parasitic number of tested aphids on the tested plant before treatment and the parasitic number after two days from the treatment.

[3] = test system: Aphis gossypii (cotton aphid); test: Test Example 3: test for controlling damage by Aphis gossypii on potted cucumber; settings: spray on potted cucumber, two days after treatment, index near zero shows high controlling effect
Protocol: as §3, with “a water-soluble formulation” for “an emulsifiable concentrate, obtained by mixing 10 parts”, “A (commercial name : Mospilan water-soluble formulation produced by Kumiai Chemical Industry)” for “C, 40 parts of xylene, 40 parts of dimethylformamide and 10 parts of Solpol 3005X,”
as §4, §5
Corrected index=100×(T2DAT/Tpre)/(C2DAT/Cpre)
T2DAT: Number of the tested aphids on the plant after two days from the treatment […]

[4] = test system: Helicoverpa armigera (cotton bollworm); test: Test Example 1: test for controlling damage by Helicoverpa armigera on potted cabbage; settings: spray on potted cabbage, two fourth-instar larvae, damage after 6 days
Protocol: as §1, with “Twenty parts of Compound (I) were dissolved in 70 parts of Solvesso 150 (solvent manufactured by Exxon Chemical), and 6 parts of Toximul 3454F (surfactant manufactured by Stepan) and 4 parts of Toximul 3455F (surfactant manufactured by Stepan) were added thereto and mixed well to give an emulsifiable concentrate. An” for “An”, “a water-soluble formulation” for “an emulsifiable concentrate, obtained by mixing 10 parts”, “A (commercial name: Mospilan water-soluble formulation produced by Kumiai Chemical Industry)” for “B or Compound C, 40 parts of xylene, 40 parts of dimethylformamide and 10 parts of Solpol 3005X,”, “two” for “five”, “6” for “7”
as §2

SMILES: FC(F)(F)c1ccc(OCCCOc2c(Cl)cc(OCC=C(Cl)Cl)cc2Cl)nc1 [(I), 3,5-dichloro-1-(3,3-dichloro-2-propenyloxy)-4-[3-(5-trifluoromethylpyridin-2-yloxy)propoxy]benzene]
- Controlling ratio (%) ([1]; 2.5 ppm): 20%
- Controlling ratio (%) ([1]; 4 ppm): 40%
- Corrected index ([2]; 0.5 ppm): 83
- Corrected index ([3]; 0.5 ppm): 83
- Controlling ratio (%) ([4]; 2.5 ppm): 25%
- Controlling ratio (%) ([4]; 5.0 ppm): 50%

SMILES: C/C(=N\C#N)N(C)Cc1ccc(Cl)nc1 [Compound A, (E)-N^1-[(6-chloro-3-pyridyl)methyl]-N^2-cyano-N^1-methylacetamidine, reference compound]
- Corrected index ([3]; 0.125 ppm): 29
- Controlling ratio (%) ([4]; 100 ppm): 0%

SMILES: CN/C(=N\[N+](=O)[O-])NCC1CCOC1 (centres unmarked) [Compound B, 1-[(tetrahydro-3-furanyl)methyl]-2-nitro-3-methylguanidine, reference compound]
- Controlling ratio (%) ([1]; 200 ppm): 40%

SMILES: CN1COCN(Cc2cnc(Cl)s2)/C1=N/[N+](=O)[O-] [Compound C, 3-(2-chlorothiazol-5-ylmethyl)-5-methyl-4-nitroiminoperhydro-1,3,5-oxadiazine, reference compound]
- Controlling ratio (%) ([1]; 100 ppm): 0%
- Corrected index ([2]; 0.25 ppm): 44
